Results taken from patent US20250340551A1, “SMALL MOLECULE MODULATORS OF STAT6” (Gilead Sciences, Inc., priority 2024, published 2025).

Biological target: human STAT6 (Homo sapiens (Human), UniProt P42226)
Experiment: Surface plasmon resonance assay (Biacore 8K, binding to immobilized STAT6)
Details: human STAT6 aa122-658, N-terminal His-tag, CM5 chip, 25° C.; geometric mean; read-out: STAT6 SPR Kd
Summary of the method: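 Run at 25° C with His-tagged STAT6 aa122-658 (insect-cell expressed) amine-coupled to a CM5 chip, reference-subtracted, in PBS-P+ with 2% DMSO. Multi-cycle kinetics: 60 sec. contact, up to 300 sec. dissociation. Affinity fitted from late report-point binding isotherms, with Rmax both free and fixed to theoretical 1:1.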

Sequence of human STAT6 (P42226 122-658): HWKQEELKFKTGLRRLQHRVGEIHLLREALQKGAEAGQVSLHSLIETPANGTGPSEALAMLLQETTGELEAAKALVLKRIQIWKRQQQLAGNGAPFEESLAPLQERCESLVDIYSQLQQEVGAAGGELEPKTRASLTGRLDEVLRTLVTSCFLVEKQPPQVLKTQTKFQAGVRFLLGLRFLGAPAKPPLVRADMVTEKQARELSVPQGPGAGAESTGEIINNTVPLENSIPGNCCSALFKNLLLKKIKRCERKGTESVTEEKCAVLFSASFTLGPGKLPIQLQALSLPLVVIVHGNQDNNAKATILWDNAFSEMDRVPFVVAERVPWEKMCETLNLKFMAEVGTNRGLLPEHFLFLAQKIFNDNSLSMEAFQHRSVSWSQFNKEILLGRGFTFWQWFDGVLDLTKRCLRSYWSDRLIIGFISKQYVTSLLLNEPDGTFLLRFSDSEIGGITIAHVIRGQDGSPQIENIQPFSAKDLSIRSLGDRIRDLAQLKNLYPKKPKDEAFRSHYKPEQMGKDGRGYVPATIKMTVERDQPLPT

Row | Kd [nM] | SMILES
1 | 104 | CN(C)C(=O)c1ccc(C2CCN(Cc3cc4c(-c5cnc(N)nn5)ccnc4n3C)CC2)cc1 [Example 1k54, 4-[1-[[4-(3-Amino-1,2,4-triazin-6-yl)-1-methyl-pyrrolo[2,3-b]pyridin-2-yl]methyl]-4-piperidyl]-N,N-dimethyl-benzamide]
2 | 766 | CN(C)C(=O)c1ccc(C2CCN(Cc3cc4c(-c5cnc(N)c(C#N)n5)ccnc4n3C)CC2)cc1 [Example 1k57, 4-[1-[[4-(5-Amino-6-cyano-pyrazin-2-yl)-1-methyl-pyrrolo[2,3-b]pyridin-2-yl]methyl]-4-piperidyl]-N,N-dimethyl-benzamide]
3 | 60.8 | CN(C)C(=O)c1ccc(C2CCN(Cc3cc4c(-c5ccc(N)nc5CO)ccnc4n3C)CC2)cc1 [Example 1k58, 4-[1-[[4-[6-Amino-2-(hydroxymethyl)-3-pyridyl]-1-methyl-pyrrolo[2,3-b]pyridin-2-yl]methyl]-4-piperidyl]-N,N-dimethyl-benzamide]
4 | 13.5 | CN(C)C(=O)c1ccc(C2CCN(Cc3cc4c(-c5ccc(N)nn5)ccnc4n3C)CC2)cc1 [Example 1k68, 4-[1-[[4-(6-Aminopyridazin-3-yl)-1-methyl-pyrrolo[2,3-b]pyridin-2-yl]methyl]-4-piperidyl]-N,N-dimethyl-benzamide]
5 | 75.1 | CN(C)C(=O)c1ccc(C2CCN(Cc3cc4c(-c5ncc(N)cc5F)ccnc4n3C)CC2)cc1 [Example 1k72, 4-[1-[[4-(5-Amino-3-fluoro-2-pyridyl)-1-methyl-pyrrolo[2,3-b]pyridin-2-yl]methyl]-4-piperidyl]-N,N-dimethyl-benzamide]
6 | 83.9 | CN(C)C(=O)c1ccc(C2CCN(Cc3cc4c(-c5ccc(N)c(C#N)n5)ccnc4n3C)CC2)cc1 [Example 1k75, 4-(1-((4-(5-Amino-6-cyanopyridin-2-yl)-1-methyl-1H-pyrrolo[2,3-b]pyridin-2-yl)methyl)piperidin-4-yl)-N,N-dimethylbenzamide]
7 | 999 | CN(C)C(=O)c1ccc(C2CCN(Cc3cc4c(-c5ccc(N)c(C(F)(F)F)n5)ccnc4n3C)CC2)cc1 [Example 1k76, 4-[1-[[4-[5-Amino-6-(trifluoromethyl)-2-pyridyl]-1-methyl-pyrrolo[2,3-b]pyridin-2-yl]methyl]-4-piperidyl]-N,N-dimethyl-benzamide]
8 | 52.3 | CN(C)C(=O)c1ccc(C2CCN(Cc3cc4c(-c5ccc(N)c(Cl)n5)ccnc4n3C)CC2)cc1 [Example 1k77, 4-(1-((4-(5-Amino-6-chloropyridin-2-yl)-1-methyl-1H-pyrrolo[2,3-b]pyridin-2-yl)methyl)piperidin-4-yl)-N,N-dimethylbenzamide]
9 | 59.3 | CCOC(=O)c1nc(-c2ccnc3c2cc(CN2CCC(c4ccc(C(=O)N(C)C)cc4)CC2)n3C)ccc1N [Example 1k78, Ethyl 3-amino-6-(2-((4-(4-(dimethylcarbamoyl)phenyl)piperidin-1-yl)methyl)-1-methyl-1H-pyrrolo[2,3-b]pyridin-4-yl)picolinate]

Continued, molecule first:

Row | SMILES | Kd [nM]
10 | CN(C)C(=O)c1ccc(C2CCN(Cc3cc4c(-c5cnc(N)c(O)c5)ccnc4n3C)CC2)cc1 [Example 1k50, 4-[1-[[4-(6-Amino-5-hydroxy-3-pyridyl)-1-methyl-pyrrolo[2,3-b]pyridin-2-yl]methyl]-4-piperidyl]-N,N-dimethyl-benzamide] | 557
11 | CN(C)C(=O)c1ccc(C2CCN(Cc3cc4c(-c5cnc(N)cc5C(F)F)ccnc4n3C)CC2)cc1 [Example 1k52, 4-[1-[[4-[6-Amino-4-(difluoromethyl)-3-pyridyl]-1-methyl-pyrrolo[2,3-b]pyridin-2-yl]methyl]-4-piperidyl]-N,N-dimethyl-benzamide] | 53.5
12 | CN(C)C(=O)c1ccc(C2CCN(Cc3cc4c(-c5cnc(N)cc5C#N)ccnc4n3C)CC2)cc1 [Example 1k53, 4-[1-[[4-(6-Amino-4-cyano-3-pyridyl)-1-methyl-pyrrolo[2,3-b]pyridin-2-yl]methyl]-4-piperidyl]-N,N-dimethyl-benzamide] | 962
13 | CN(C)C(=O)c1ccc(C2CCN(Cc3cc4c(-c5c(C(F)F)cc(N)cc5C(F)F)ccnc4n3C)CC2)cc1 [Example 1k55, 4-[1-[[4-[4-Amino-2,6-bis(difluoromethyl)phenyl]-1-methyl-pyrrolo[2,3-b]pyridin-2-yl]methyl]-4-piperidyl]-N,N-dimethyl-benzamide] | 1010
14 | COC(=O)c1cc(N)ncc1-c1ccnc2c1cc(CN1CCC(c3ccc(C(=O)N(C)C)cc3)CC1)n2C [Example 1k56, Methyl 2-amino-5-[2-[[4-[4-(dimethylcarbamoyl)phenyl]-1-piperidyl]methyl]-1-methyl-pyrrolo[2,3-b]pyridin-4-yl]pyridine-4-carboxylate] | 1400
15 | COCCNc1ccc(-c2ccnc3c2cc(CN2CCC(c4ccc(C(=O)N(C)C)cc4)CC2)n3C)cn1 [Example 1k59, 4-[1-[[4-[6-(2-Methoxyethylamino)-3-pyridyl]-1-methyl-pyrrolo[2,3-b]pyridin-2-yl]methyl]-4-piperidyl]-N,N-dimethyl-benzamide] | 57.3
16 | CN(C)C(=O)c1ccc(C2CCN(Cc3cc4c(-c5ccc(N)c(-c6nnn[nH]6)c5)ccnc4n3C)CC2)cc1 [Example 1k60, 4-[1-[[4-[4-Amino-3-(2H-tetrazol-5-yl)phenyl]-1-methyl-pyrrolo[2,3-b]pyridin-2-yl]methyl]-4-piperidyl]-N,N-dimethyl-benzamide] | 35.9
17 | CN(C)C(=O)c1ccc(C2CCN(Cc3cc4c(-c5ccc(NCCO)nc5)ccnc4n3C)CC2)cc1 [Example 1k61, 4-[1-[[4-[6-(2-Hydroxyethylamino)-3-pyridyl]-1-methyl-pyrrolo[2,3-b]pyridin-2-yl]methyl]-4-piperidyl]-N,N-dimethyl-benzamide] | 16.5
18 | CN(C)C(=O)c1ccc(C2CCN(Cc3cc4c(-c5ccc(NCC(=O)O)nc5)ccnc4n3C)CC2)cc1 [Example 1k63, 2-[[5-[2-[[4-[4-(Dimethylcarbamoyl)phenyl]-1-piperidyl]methyl]-1-methyl-pyrrolo[2,3-b]pyridin-4-yl]-2-pyridyl]amino]acetic acid] | 16.3
19 | CN(C)C(=O)c1ccc(C2CCN(Cc3cc4c(-c5cnc(N)c(-c6nnn[nH]6)c5)ccnc4n3C)CC2)cc1 [Example 1k64, 4-[1-[[4-[6-Amino-5-(2H-tetrazol-5-yl)-3-pyridyl]-1-methyl-pyrrolo[2,3-b]pyridin-2-yl]methyl]-4-piperidyl]-N,N-dimethyl-benzamide] | 1700
20 | Cc1cc(N)nc(C)c1-c1ccnc2c1cc(CN1CCC(c3ccc(C(=O)N(C)C)cc3)CC1)n2C [Example 1k65, 4-[1-[[4-(6-Amino-2,4-dimethyl-3-pyridyl)-1-methyl-pyrrolo[2,3-b]pyridin-2-yl]methyl]-4-piperidyl]-N,N-dimethyl-benzamide] | 254
21 | [2H]C([2H])([2H])N(C(=O)c1ccc(C2CCN(Cc3cc4c(-c5ccc(NC)cn5)ccnc4n3C)CC2)cc1)C([2H])([2H])[2H] [Example 1k70, 4-[1-[[1-methyl-4-[5-(methylamino)-2-pyridyl]pyrrolo[2,3-b]pyridin-2-yl]methyl]-4-piperidyl]-N,N-bis(trideuteriomethyl)benzamide] | 51.9
22 | CN(C)C(=O)c1ccc(C2CCN(Cc3cc4c(-c5ncc(N)cc5C(F)(F)F)ccnc4n3C)CC2)cc1 [Example 1k74, 4-[1-[[4-[5-Amino-3-(trifluoromethyl)-2-pyridyl]-1-methyl-pyrrolo[2,3-b]pyridin-2-yl]methyl]-4-piperidyl]-N,N-dimethyl-benzamide] | 7290
23 | CN(C)C(=O)c1ccc(C2CCN(Cc3cc4c(-c5ccc(N)c(C#N)c5)ccnc4n3C)CC2)cc1 [Example 1k80, 4-(1-((4-(4-Amino-3-cyanophenyl)-1-methyl-1H-pyrrolo[2,3-b]pyridin-2-yl)methyl)piperidin-4-yl)-N,N-dimethylbenzamide] | 52.1
24 | CN(C)C(=O)c1ccc(C2CCN(Cc3cc4c(-c5ccc6[nH]cc(C(=O)C(F)(F)F)c6c5)ccnc4n3C)CC2)cc1 [Example 1m145, N,N-dimethyl-4-(1-((1-methyl-4-(3-(2,2,2-trifluoroacetyl)-1H-indol-5-yl)-1H-pyrrolo[2,3-b]pyridin-2-yl)methyl)piperidin-4-yl)benzamide] | 253
25 | C[C@@H]1CN(c2ccc(C(=O)N(C)C)cc2)CCN1Cc1cc2c(-c3ccc(N)nc3)ccnc2n1C [Example 1n4, 4-[(3R)-4-[[4-(6-amino-3-pyridyl)-1-methyl-pyrrolo[2,3-b]pyridin-2-yl]methyl]-3-methyl-piperazin-1-yl]-N,N-dimethyl-benzamide] | 147
26 | C[C@H]1CN(c2ccc(C(=O)N(C)C)cc2)CCN1Cc1cc2c(-c3ccc(N)nc3)ccnc2n1C [Example 1n5, 4-[(3S)-4-[[4-(6-Amino-3-pyridyl)-1-methyl-pyrrolo[2,3-b]pyridin-2-yl]methyl]-3-methyl-piperazin-1-yl]-N,N-dimethyl-benzamide] | 68.6
27 | CNc1ccc(-c2ccnc3c2cc(CN2CCN(c4ccc(C(=O)N(C)C)cn4)CC2)n3C)cn1 [Example 1n7, N,N-Dimethyl-6-[4-[[1-methyl-4-[6-(methylamino)-3-pyridyl]pyrrolo[2,3-b]pyridin-2-yl]methyl]piperazin-1-yl]pyridine-3-carboxamide] | 1040
28 | CNc1cc(C)c(-c2ccnc3c2cc(CN2CCN(c4ccc(C(=O)N(C)C)cc4)CC2)n3C)cn1 [Example 1n8, N,N-Dimethyl-4-[4-[[1-methyl-4-[4-methyl-6-(methylamino)-3-pyridyl]pyrrolo[2,3-b]pyridin-2-yl]methyl]piperazin-1-yl]benzamide] | 2600
29 | CNc1ccc(-c2ccnc3c2cc(CN2CCN(c4ccc(C(=O)N(C)C)cn4)CC2)n3C)nc1 [Example 1n9, N,N-Dimethyl-6-[4-[[1-methyl-4-[5-(methylamino)-2-pyridyl]pyrrolo[2,3-b]pyridin-2-yl]methyl]piperazin-1-yl]pyridine-3-carboxamide] | 8920
